Where two headings read alike, the source gives them in different places.
Columns and labels:
Type in all cases: in vivo
[1] = tested on: Pseudoperonospora cubensis (downy mildew); assay: Test 1 greenhouse foliar spray screen, downy mildew on squash; settings: for DOWN MDEW: disease control rating, foliar spray on squash, 400 ppm (+++ at 100 ppm)
[2] = tested on: southern armyworm (Spodopetra eridania Cramer); assay: Mite/insect screen, SAW; settings: percent mortality
How it was run: (§1)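 Formulation: acetone/alcohol 50:50 + sulfonate/nonionic emulsifiers, water-diluted to indicated concs. Spray both leaf surfaces to runoff, 10 psi; dry 1 h. Armyworm: 2 excised uninfested leaves in Petri dish. Score % mortality after standard exposure.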

[3] = tested on: Venturia inaequalis (apple scab); assay: Test 1 greenhouse foliar spray screen, apple scab on apple seedling; settings: for APPL SCAB: disease control rating, foliar spray on apple seedling, 400 ppm (+++ at 100 ppm)
[4] = tested on: corn rootworm; assay: Mite/insect screen, CRW; settings: percent mortality
How it was run: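 Percent mortality is evaluated once the standard exposure period ends. Test material is applied as a water dilution of an acetone/alcohol (50:50) stock carrying two sulfonate/nonionic emulsifiers (23 and 13 g per liter).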

[5] = tested on: Puccinia recondita tritici (leaf rust); assay: Test 1 greenhouse foliar spray screen, leaf rust on wheat; settings: for LEAF RUST: disease control rating, foliar spray on wheat, 400 ppm (+++ at 100 ppm)
[6] = tested on: Erysiphe graminis tritici (powdery mildew); assay: Test 1 greenhouse foliar spray screen, powdery mildew on wheat; settings: for POWD MDEW: disease control rating, foliar spray on wheat, 400 ppm (+++ at 100 ppm)
[7] = tested on: Cercospora beticola (leaf spot); assay: Test 1 greenhouse foliar spray screen, leaf spot on sugar beet; settings: for LEAF SPOT: disease control rating, foliar spray on sugar beet, 400 ppm (+++ at 100 ppm)
[8] = tested on: Twospotted spider mites (Tetranychus urticae Koch); assay: Mite/insect screen, SM; settings: percent mortality
How it was run: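 Compounds dissolved in 50:50 acetone/alcohol containing sulfonate/nonionic emulsifier blends, then diluted with water to the indicated concentrations. Leaves sprayed on both surfaces to runoff at 10 psi and dried one hour. Percent mortality scored after standard exposure periods.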

[9] = tested on: melon aphids (Aphis gossypii Glover); assay: Mite/insect screen, MA; settings: percent mortality
How it was run: as §1

[10] = tested on: Septoria tritici (leaf blotch); assay: Test 1 greenhouse foliar spray screen, leaf blotch on wheat; settings: for LEAF BLOT: disease control rating, foliar spray on wheat, 400 ppm (+++ at 100 ppm)
[11] = tested on: Botrytis cinerea (gray mold); assay: Test 1 greenhouse foliar spray screen, gray mold on grape berries; settings: for GRAY MOLD: disease control rating, spray on grape berries, 400 ppm (+++ at 100 ppm)
[12] = tested on: Pyricularia oryzae (rice blast); assay: whole plant or invertebrate; settings: for RICE BLAST: disease control rating, foliar spray on rice, 400 ppm (+++ at 100 ppm)
[13] = Spodoptera eridania, foliar, rate 200 ppm, foliar spray on squash, read-out: SAW RESULTS %
[14] = CRW rate 12.00 ppm, read-out: CRW RESULTS %
[15] = Tetranychus urticae, foliar, rate 200 ppm, foliar spray on squash, read-out: SM RESULTS %
[16] = Aphis gossypii, foliar, rate 200 ppm, foliar spray on squash, read-out: MA RESULTS %
[17] = Spodoptera eridania, SAW, SM & MA RATE 200 PPM, read-out: SAW RESULTS %
[18] = CRW RATE 12.00 PPM, read-out: CRW RESULTS %
[19] = Tetranychus urticae, SAW, SM & MA RATE 200 PPM, read-out: SM RESULTS %
[20] = Aphis gossypii, SAW, SM & MA RATE 200 PPM, read-out: MA RESULTS %

| SMILES | DOWN MDEW [1] | APPL SCAB [3] | LEAF RUST [5] | POWD MDEW [6] | LEAF SPOT [7] | LEAF BLOT [10] | GRAY MOLD [11] | RICE BLAST [12] | mortality at 200 ppm [2, 17] [%] | mortality at 12 ppm [4, 18] [%] | mortality at 200 ppm [8, 19] [%] | mortality at 200 ppm [9, 20] [%] | SM RESULTS % ([8]; SAW, SM & MA RATE 200 PPM) [%] | MA RESULTS % ([9]; SAW, SM & MA RATE 200 PPM) [%] | also measured |
| --- | --- | --- | --- | --- | --- | --- | --- | --- | --- | --- | --- | --- | --- | --- | --- |
| Fc1cccc2c(OCCc3cccc4ccccc34)ccnc12 [Example 244, 8-fluoro-4-[2-(1-naphthyl)ethoxy]quinoline] |  |  |  |  |  |  |  |  |  |  |  |  |  |  | pest or weed control at 400 ppm ([1]; Pseudoperonospora cubensis, foliar, Test 1, foliar spray on squash, disease control rating at 400 ppm / 100 ppm, read-out: DOWN MDEW): 20 to 89%; mortality at 200 ppm [2, 13]: 0%; pest or weed control at 400 ppm ([3]; Venturia inaequalis, Test 1, foliar spray on apple seedling, disease control rating at 400 ppm / 100 ppm, read-out: APPL SCAB): 0 to 19%; mortality at 12 ppm [4, 14]: 0%; pest or weed control at 400 ppm ([5]; Puccinia recondita, foliar, Test 1, foliar spray on wheat, disease control rating at 400 ppm / 100 ppm): 20 to 89%; pest or weed control at 400 ppm ([6]; Blumeria graminis, foliar, Test 1, foliar spray on wheat, disease control rating at 400 ppm / 100 ppm, read-out: POWD MDEW): 20 to 89%; pest or weed control at 400 ppm ([7]; Cercospora beticola, Test 1, foliar spray on sugar beet, disease control rating at 400 ppm / 100 ppm): 0 to 19%; mortality at 200 ppm [8, 15]: 0%; mortality at 200 ppm [9, 16]: 40%; pest or weed control at 400 ppm ([10]; Zymoseptoria tritici, Test 1, foliar spray on wheat, disease control rating at 400 ppm / 100 ppm, read-out: LEAF BLOT): 20 to 89%; pest or weed control at 400 ppm ([11]; Botrytis cinerea, foliar, Test 1, spray on grape berries, disease control rating at 400 ppm / 100 ppm): 0 to 19%; pest or weed control at 400 ppm ([12]; Pyricularia oryzae, foliar, read-out: RICE BLAST, Test 1, foliar spray on rice, disease control rating at 400 ppm / 100 ppm): 90 to 100% |
| FC(F)(F)c1ccc2c(NCCc3ccc4ccccc4c3)ccnc2c1 [Example 169, N-[2-(2-naphthyl)ethyl]-7-(trifluoromethyl)-4-quinolinamine] | ++ (90-100% control at 400 ppm) | - (0-19% control at 400 ppm) | + (20-89% control at 400 ppm) | + (20-89% control at 400 ppm) | - (0-19% control at 400 ppm) | - (0-19% control at 400 ppm) | - (0-19% control at 400 ppm) | ++ (90-100% control at 400 ppm) |  |  |  |  |  |  | mortality at 200 ppm [2, 13]: 0%; mortality at 400 ppm ([2]; Spodoptera eridania, foliar, rate 400 ppm, foliar spray on squash, read-out: SAW RESULTS %): 0%; mortality at 12 ppm [4, 14]: 0%; mortality at 24 ppm ([4]; CRW rate 24.00 ppm, read-out: CRW RESULTS %): 0%; mortality at 200 ppm [8, 15]: 0%; mortality at 400 ppm ([8]; Tetranychus urticae, foliar, rate 400 ppm, foliar spray on squash, read-out: SM RESULTS %): 0%; mortality at 200 ppm [9, 16]: 0%; mortality at 400 ppm ([9]; Aphis gossypii, foliar, rate 400 ppm, foliar spray on squash, read-out: MA RESULTS %): 0% |
| c1ccc2c(CCNc3ccnc4ccccc34)cccc2c1 [Example 151, N-[2-(1-naphthyl)ethyl]-4-quinolinamine] | +++ (90-100% control at 100 ppm) | - (0-19% control at 400 ppm) | ++ (90-100% control at 400 ppm) | + (20-89% control at 400 ppm) | + (20-89% control at 400 ppm) | + (20-89% control at 400 ppm) | - (0-19% control at 400 ppm) | + (20-89% control at 400 ppm) | 0 | 0 | 0 | 0 |  |  |  |
| Fc1cccc2c(NCCc3cccc(Cl)c3)ccnc12 [Example 74, N-[2-(3-chlorophenyl)ethyl]-8-fluoro-4-quinolinamine] | +++ (90-100% control at 100 ppm) | - (0-19% control at 400 ppm) | +++ (90-100% control at 100 ppm) | + (20-89% control at 400 ppm) | +++ (90-100% control at 100 ppm) | - (0-19% control at 400 ppm) | - (0-19% control at 400 ppm) | + (20-89% control at 400 ppm) |  | 0 | 0 | 0 | 0 | 0 | CRW RESULTS % ([4]; CRW RATE 12.00 PPM): 0% |
| CC(CNc1ccnc2c(F)cccc12)c1ccc(Cl)cc1 (stereo not shown) [Example 79, N-[2-(4-chlorophenyl)propyl]-8-fluoro-4-quinolinamine] | +++ (90-100% control at 100 ppm) | - (0-19% control at 400 ppm) | ++ (90-100% control at 400 ppm) | + (20-89% control at 400 ppm) | +++ (90-100% control at 100 ppm) | + (20-89% control at 400 ppm) | - (0-19% control at 400 ppm) | ++ (90-100% control at 400 ppm) |  | 0 | 0 | 0 | 0 | 0 | CRW RESULTS % ([4]; CRW RATE 12.00 PPM): 0% |
| Cc1ccc(CCNc2ccnc3c(F)cccc23)cc1 [Example 71, 8-fluoro-N-[2-(4-methylphenyl)ethyl]-4-quinolinamine] | +++ (90-100% control at 100 ppm) | - (0-19% control at 400 ppm) | +++ (90-100% control at 100 ppm) | + (20-89% control at 400 ppm) | +++ (90-100% control at 100 ppm) | + (20-89% control at 400 ppm) | - (0-19% control at 400 ppm) | + (20-89% control at 400 ppm) | 0 |  | 0 | 0 | 0 | 0 | SAW RESULTS % ([2]; SAW, SM & MA RATE 200 PPM): 0% |
| CC(CNc1ccnc2ccccc12)c1ccccc1 (stereo not shown) [Example 21, N-(2-phenylpropyl)-4-quinolinamine] | ++ (90-100% control at 400 ppm) | - (0-19% control at 400 ppm) | + (20-89% control at 400 ppm) | + (20-89% control at 400 ppm) |  | - (0-19% control at 400 ppm) | - (0-19% control at 400 ppm) | + (20-89% control at 400 ppm) | 0 | 0 | 0 | 0 |  |  |  |
| Clc1cccc2c(NCCc3ccccc3)ccnc12 [Example 33, 8-chloro-N-(2-phenylethyl)-4-quinolinamine] | +++ (90-100% control at 100 ppm) | - (0-19% control at 400 ppm) | + (20-89% control at 400 ppm) | - (0-19% control at 400 ppm) |  | - (0-19% control at 400 ppm) | - (0-19% control at 400 ppm) | + (20-89% control at 400 ppm) | 0 | 0 | 0 | 0 |  |  | activity against downy mildew ([1]; summary statement in the description): particularly excellent activity |
| OC(CNc1ccnc2ccccc12)c1ccccc1 (stereo not drawn) [Example 26, α-[(4-quinolinylamino)methyl]benzenemethanol] | +++ (90-100% control at 100 ppm) | - (0-19% control at 400 ppm) | - (0-19% control at 400 ppm) | + (20-89% control at 400 ppm) |  | - (0-19% control at 400 ppm) | - (0-19% control at 400 ppm) | + (20-89% control at 400 ppm) | 0 | 0 | 0 | 0 |  |  |  |
| Cc1cc(C)c2nccc(NCCc3ccccc3)c2c1 [Example 28, 6,8-dimethyl-N-(2-phenylethyl)-4-quinolinamine] | +++ (90-100% control at 100 ppm) | - (0-19% control at 400 ppm) | + (20-89% control at 400 ppm) | + (20-89% control at 400 ppm) |  | - (0-19% control at 400 ppm) | - (0-19% control at 400 ppm) | ++ (90-100% control at 400 ppm) | 0 | 0 | 0 | 0 |  |  |  |

From patent publication EP0326331B1, “Substituted quinolines and cinnolines” (Dow AgroSciences LLC, priority 1988, dated 1989)
